Assay results: the supplement of paper PMC10307832

Experiments:
Experiment in all cases: relative viability (nuclei count vs DMSO), 5 days (fraction); higher = more cells survive
[1] = compound: CC(C)CCN1c2nc(Nc3cc(F)c(O)c(F)c3)ncc2N(C)C(=O)C1C [BI-D1870] + COc1cccc2cc(-c3nc([C@H]4CC[C@H](C(=O)O)CC4)n4ncnc(N)c34)[nH]c12 [OSI-027] (partner 0.5 µM)
In short: (§1)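 Relative viability was taken as the ratio of nuclei in treated wells to nuclei in vehicle wells. Lung cancer cell lines in 1536-well plates received compounds by pin tool one day after seeding, either one drug alone or a fixed anchor-drug dose plus five library-drug doses (not always all listed) in √10 steps. Nuclei were counted on 4× images after 5 days of treatment, and values are medians of duplicate plates.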

[2] = compound: CC(C)CCN1c2nc(Nc3cc(F)c(O)c(F)c3)ncc2N(C)C(=O)C1C [BI-D1870] + CS(=O)(=O)N1CCN(Cc2cc3nc(-c4cccc5[nH]ncc45)nc(N4CCOCC4)c3s2)CC1 [Pictilisib] (partner 1 µM)
In short: as §1

[3] = compound: CC(C)CCN1c2nc(Nc3cc(F)c(O)c(F)c3)ncc2N(C)C(=O)C1C [BI-D1870] + C[C@]1(O)C[C@@H](c2nc(-c3ccc4ccc(-c5ccccc5)nc4c3)c3c(N)nccn32)C1 [Linsitinib] (partner 1 µM)
In short: as §1

[4] = compound: CC(C)CCN1c2nc(Nc3cc(F)c(O)c(F)c3)ncc2N(C)C(=O)C1C [BI-D1870] + Cc1cc(Nc2cc(N3CCN(C)CC3)nc(Sc3ccc(NC(=O)C4CC4)cc3)n2)n[nH]1 [Tozasertib] (partner 0.1 µM)
In short: as §1

Cell Line | relative viability ([1]; first compound 0.04 µM) | relative viability ([1]; first compound 0.1265 µM) | relative viability ([1]; first compound 0.4 µM) | relative viability ([1]; first compound 1.265 µM) | relative viability ([1]; first compound 4 µM) | relative viability ([2]; first compound 0.04 µM) | relative viability ([2]; first compound 0.1265 µM) | relative viability ([2]; first compound 0.4 µM) | relative viability ([2]; first compound 1.265 µM) | relative viability ([2]; first compound 4 µM) | relative viability ([3]; first compound 0.04 µM) | relative viability ([3]; first compound 0.1265 µM) | relative viability ([3]; first compound 0.4 µM) | relative viability ([3]; first compound 1.265 µM) | relative viability ([3]; first compound 4 µM) | relative viability ([4]; first compound 0.04 µM) | relative viability ([4]; first compound 0.1265 µM) | relative viability ([4]; first compound 0.4 µM) | relative viability ([4]; first compound 1.265 µM) | relative viability ([4]; first compound 4 µM)
201T | 0.742 | 0.826 | 0.702 | 0.801 | 0.683 | 0.672 | 0.624 | 0.716 | 0.684 | 0.642 | 1.05 | 1.09 | 1.06 | 1.04 | 1.07 | 0.993 | 0.905 | 0.935 | 0.955 | 0.936
A549 | – | – | – | – | – | 0.725 | 0.499 | 0.369 | 0.465 | 0.0705 | 0.703 | 0.57 | 0.588 | 0.649 | 0.573 | – | – | – | – | –
A-427 | 0.547 | 0.429 | 0.574 | 0.61 | 0.528 | 0.824 | 0.553 | 0.689 | 0.716 | 0.654 | 1.14 | 1.1 | 1.13 | 1.17 | 1.17 | 0.202 | 0.213 | 0.21 | 0.238 | 0.221
ABC-1 | 0.669 | 0.406 | 0.416 | 0.501 | 0.319 | 0.751 | 0.673 | 0.633 | 0.744 | 0.566 | 0.857 | 0.835 | 0.718 | 0.946 | 0.782 | 0.171 | 0.155 | 0.15 | 0.197 | 0.197
BEN | 0.296 | 0.289 | 0.283 | 0.311 | 0.283 | 0.56 | 0.608 | 0.566 | 0.608 | 0.507 | 0.956 | 0.859 | 0.914 | 1.01 | 0.961 | 0.557 | 0.618 | 0.438 | 0.548 | 0.605
CAL-12T | 0.593 | 0.449 | 0.477 | 0.599 | 0.303 | 0.554 | 0.363 | 0.382 | 0.657 | 0.336 | 0.935 | 0.559 | 0.749 | 0.79 | 0.704 | 0.324 | 0.317 | 0.185 | 0.261 | 0.194
COR-L23 | 0.883 | 0.722 | 0.707 | 0.823 | 0.577 | 1.08 | 0.695 | 0.743 | 0.732 | 0.643 | 0.896 | 0.927 | 0.92 | 0.996 | 0.536 | 0.199 | 0.166 | 0.145 | 0.181 | 0.13
COR-L 105 | 0.769 | 0.682 | 0.619 | 0.808 | 0.754 | 0.4 | 0.405 | 0.407 | 0.474 | 0.386 | 1.11 | 0.813 | 0.926 | 0.856 | 0.666 | 0.416 | 0.319 | 0.343 | 0.341 | 0.33
Calu-6 | – | – | – | – | – | 1.03 | 0.82 | 0.868 | 0.704 | 0.367 | 1.04 | 0.896 | 0.889 | 0.884 | 0.744 | – | – | – | – | –
ChaGo-K-1 | 0.652 | 0.55 | 0.547 | 0.559 | 0.538 | 0.757 | 0.807 | 0.502 | 0.758 | 0.407 | – | – | – | – | – | 0.224 | 0.203 | 0.201 | 0.236 | 0.22
EBC-1 | – | – | – | – | – | 0.459 | 0.451 | 0.354 | 0.363 | 0.123 | 1.17 | 0.616 | 0.75 | 0.582 | 0.682 | – | – | – | – | –
EKVX | 0.68 | 0.608 | 0.64 | 0.776 | 0.641 | 0.488 | 0.388 | 0.412 | 0.453 | 0.403 | 1.14 | 0.933 | 1 | 1.05 | 0.893 | 0.433 | 0.379 | 0.378 | 0.287 | 0.206
EMC-BAC-2 | 0.46 | 0.37 | 0.351 | 0.422 | 0.334 | 0.626 | 0.48 | 0.514 | 0.637 | 0.535 | 0.864 | 0.748 | 0.792 | 0.802 | 0.799 | 0.317 | 0.248 | 0.316 | 0.288 | 0.259
EPLC-272H | 0.263 | 0.218 | 0.272 | 0.278 | 0.204 | 0.364 | 0.295 | 0.275 | 0.312 | 0.243 | 1.22 | 1.15 | 1.34 | 1.22 | 1.14 | 0.37 | 0.242 | 0.232 | 0.247 | 0.238
H3255 | 0.627 | 0.51 | 0.548 | 0.682 | 0.539 | 0.505 | 0.458 | 0.451 | 0.584 | 0.497 | 0.94 | 0.959 | 0.935 | 1.1 | 0.907 | 0.641 | 0.57 | 0.68 | 0.604 | 0.739
HARA | 0.616 | 0.417 | 0.503 | 0.608 | 0.421 | 0.597 | 0.314 | 0.458 | 0.518 | 0.366 | 1.1 | 0.897 | 1.03 | 1.09 | 0.873 | 0.129 | 0.101 | 0.128 | 0.139 | 0.0974
HCC-15 | 0.732 | 0.611 | 0.638 | 0.765 | 0.396 | 0.792 | 0.661 | 0.674 | 0.79 | 0.509 | 0.89 | 0.751 | 0.772 | 0.92 | 0.713 | 0.523 | 0.347 | 0.33 | 0.333 | 0.185
HCC-44 | 0.751 | 0.5 | 0.642 | 0.464 | 0.383 | 0.651 | 0.498 | 0.617 | 0.768 | 0.443 | 0.718 | 0.667 | 0.679 | 0.712 | 0.634 | 1.29 | 0.89 | 0.855 | 0.602 | 0.404
